Source: US10793527B2, “Adenosine monophosphate-activated protein kinase agonist” (NATIONAL YANG-MING UNIVERSITY, priority 2016, dated 2020)
pIC50: −log10 of the molar value.

Tests used:
[1] = test system: PLC/PRF/5 (PLC5) cells; assay: Cell viability of liver cancer cells (Prestoblue), PLC5; assay type: cell-based; details: PLC5 cells, 48 hr
Description: Hepatoma cell Huh-7 was obtained from Health Science Research Resources Bank (HSRRB, Osaka. Japan; JCRB0403); Hepatoma cell PLC/PRF/5 (PLC5), Sk-Hep-1 and HCC1806 were obtained from the American Type Culture Collection (ATCC, Manassas, Va.). All cell lines are cultured immediately and frozen, so the frozen cells can be thawed every 3 months to allow experiments are conducted with the same batch of cells.
Analysis is performed using a commercial kit Prestoblue assay produced by Thermo Fisher Scientific. Three liver cancer cell lines PLC/PRF/5, SK-hep1, and Huh-7 are cultured with compound SCT-1015 for 48 hours and 72 hours, respectively. […] The results support that the compound of the present invention can activate AMPK to inhibit the proliferation of liver cancer cells.

[2] = test system: AMPK T172; assay: Detection of AMPK phosphorylation by ELISA assay in PLC5 cells; assay type: cell-based; details: PLC5 cultured with 10 μM compound for 24 hours, compared to control group
Description: In this analysis, the commercial kit AMPK […] Phospho-ELISA Kit (KHO0651) produced by ThermoFisher Science is utilized. The hepatoma cell PLC5 is cultured with 10 μM of the compound for 24 hours, and the analysis is performed according to the manual, and the absorbance was detected at a wavelength of 450 nm.

[3] = Treatment of diet-induced obesity (DIO) mice, body weight; assay type: in vivo; details: compared to the control group of mice (FIG. 6)
From the text: The male mice C57BL/6 were purchased from the National Laboratory Animal Center (NLAC, Taipei, Taiwan) and fed high-fat-die for 4 weeks to establish the diet-induced obesity (DIO) mouse model for subsequent experiments

Row | SMILES | pIC50 [1] | AMPK T172 activity [2] [fold] | body weight lost [3]
1 | Cc1ccc(C(=O)Nc2ccc(Cl)c(C(F)(F)F)c2)cc1Nc1nccc(-c2ccc(C#N)cc2)n1 [SCT-1001, N-(4-chloro-3-(trifluoromethyl)phenyl)-(3)-((4-(4-cyanophenyl)pyrimidin-2-yl)amino)-4-methylbenzamide] | < 4.70 | – | –
2 | Cc1ccc(C(=O)Nc2ccc(Cl)c(C(F)(F)F)c2)cc1Nc1nccc(-c2ccc[nH]2)n1 [SCT-1003, 3-((4-(1H-pyrrol-2-yl)pyrimidin-2-yl)amino)-N-(4-chloro-3-(trifluoromethyl)phenyl)-4-methylbenzamide] | < 4.70 | 1.1 | –
3 | Cc1ccc(C(=O)Nc2ccc(Cl)c(C(F)(F)F)c2)cc1Nc1nccc(-c2ccccc2)n1 [SCT-1004, N-(4-chloro-3-(trifluoromethyl)phenyl)-4-methyl-3-((4-phenylpyrimidin-2-yl)amino)benzamide] | < 4.70 | 1.1 | –
4 | CSc1cccc(-c2ccnc(Nc3cc(C(=O)Nc4ccc(Cl)c(C(F)(F)F)c4)ccc3C)n2)c1 [SCT-1008, N-(4-chloro-3-(trifluoromethyl)phenyl)-4-methyl-3-((4-(3-(methylthio)phenyl)pyrimidin-2-yl)amino)benzamide] | < 4.70 | 1.0 | –
5 | Cc1ccc(C(=O)Nc2ccc(Cl)c(C(F)(F)F)c2)cc1Nc1nccc(-c2ccc(OC(F)(F)F)cc2)n1 [SCT-1010, N-(4-chloro-3-(trifluoromethyl)phenyl)-4-methyl-3-((4-(4-(trifluoromethoxy)phenyl)pyrimidin-2-yl)amino)benzamide] | < 4.70 | 1.0 | –
6 | Cc1ccc(C(=O)Nc2ccc(Cl)c(C(F)(F)F)c2)cc1Nc1nccc(-c2ccc(C(F)(F)F)cc2)n1 [SCT-1011, N-(4-chloro-3-(trifluoromethyl)phenyl)-4-methyl-3-((4-(4-(trifluoromethyl)phenyl)pyrimidin-2-yl)amino)benzamide] | < 4.70 | 1.1 | –
7 | N#Cc1cccc(-c2ccnc(Nc3cccc(NC(=O)Nc4ccc(Cl)c(C(F)(F)F)c4)c3)n2)c1 [SCT-1014] | < 4.70 | 1.0 | –
8 | O=C(Nc1cccc(Nc2nccc(-c3ccccc3)n2)c1)Nc1ccc(Cl)c(C(F)(F)F)c1 [SCT-1016, 1-(4-chloro-3-(trifluoromethyl)phenyl)-(3-((4-phenylpyrimidin-2-yl)amino)phenyl)urea] | < 4.70 | 1.0 | –
9 | O=C(Nc1cccc(Nc2nccc(-c3cccs3)n2)c1)Nc1ccc(Cl)c(C(F)(F)F)c1 [SCT-1017, 1-(4-chloro-3-(trifluoromethyl)phenyl)-3-(3-((4-(thiophen-2-yl)pyrimidin-2-yl)amino)phenyl)urea] | < 4.70 | 1.1 | –
10 | CSc1cccc(-c2ccnc(Nc3cccc(NC(=O)Nc4ccc(Cl)c(C(F)(F)F)c4)c3)n2)c1 [SCT-1018, 1-(4-chloro-3-(trifluoromethyl)phenyl)-3-(3-((4-(3-(methylthio)phenyl)pyrimidin-2-yl)amino)phenyl)urea] | < 4.70 | 1.1 | –
11 | Cc1cc(-c2ccnc(Nc3cccc(NC(=O)Nc4ccc(Cl)c(C(F)(F)F)c4)c3)n2)ccc1F [SCT-1019, 1-(4-chloro-3-(trifluoromethyl)phenyl)-3-(3-((4-(4-fluoro-3-methylphenyl)pyrimidin-2-yl)amino)phenyl)urea] | < 4.70 | 1.0 | –
12 | O=C(Nc1cccc(Nc2nccc(-c3ccc(C(F)(F)F)cc3)n2)c1)Nc1ccc(Cl)c(C(F)(F)F)c1 [SCT-1021, 1-(4-chloro-3-(trifluoromethyl)phenyl)-3-(3-((4-(4-(trifluoromethyl)phenyl)pyrimidin-2-yl)amino)phenyl)urea] | < 4.70 | 1.2 | –
13 | O=C(Nc1cccc(Nc2nccc(-c3cc(Cl)cc(Cl)c3)n2)c1)Nc1ccc(Cl)c(C(F)(F)F)c1 [SCT-1023, 1-(4-chloro-3-(trifluoromethyl)phenyl)-3-(3-((4-(3,5-dichlorophenyl)pyrimidin-2-yl)amino)phenyl)urea] | < 4.70 | – | –
14 | COC(=O)c1cccc(NC(=O)Nc2cccc(Nc3nccc(-c4ccc[nH]4)n3)c2)c1 [SCT-1037] | < 4.70 | – | –
15 | O=C(Nc1cccc(Nc2nccc(-c3ccc[nH]3)n2)c1)Nc1cccc(C(=O)O)c1 [SCT-1038, 3-(3-(3-((4-(1H-pyrrol-2-yl)pyrimidin-2-yl)amino)phenyl)ureido)benzoic acid] | < 4.70 | – | –
16 | COC(=O)c1cc(NC(=O)Nc2cccc(Nc3nccc(-c4ccc[nH]4)n3)c2)ccc1Cl [SCT-1041, Methyl 5-(3-(3-((4-(1H-pyrrol-2-yl)pyrimidin-2-yl)amino)phenyl)ureido)-2-chlorobenzoate] | < 4.70 | – | –
17 | CCCCCCCCCCC[C@@H](C[C@@H]1OC(=O)[C@H]1CCCCCC)OC(=O)[C@H](CC(C)C)NC=O [orlistat, reference compound] | – | – | similar

Now from value to compound, other results behind:

Row | pIC50 [1] | SMILES | AMPK T172 activity [2] [fold] | body weight lost [3]
18 | < 4.70 | Cc1ccc(C(=O)Nc2ccc(Cl)c(C(F)(F)F)c2)cc1Nc1nccc(-c2cccc(C#N)c2)n1 [SCT-1002, N-(4-chloro-3-(trifluoromethyl)phenyl)-3-((4-(3-cyanophenyl)pyrimidin-2-yl)amino)-4-methylbenzamide] | 1.2 | –
19 | < 4.70 | COc1ccc2ccccc2c1-c1ccnc(Nc2cc(C(=O)Nc3ccc(Cl)c(C(F)(F)F)c3)ccc2C)n1 [SCT-1005, N-(4-chloro-3-(trifluoromethyl)phenyl)-3-((4-(2-methoxynaphthalen-1-yl)pyrimidin-2-yl)amino)-4-methylbenzamide] | 1.0 | –
20 | < 4.70 | Cc1ccc(C(=O)Nc2ccc(Cl)c(C(F)(F)F)c2)cc1Nc1cc(-c2ccccc2)ncn1 [SCT-1006, N-(4-chloro-3-(trifluoromethyl)phenyl)-4-methyl-3-((6-phenylpyrimidin-4-yl)amino)benzamide] | 1.3 | –
21 | < 4.70 | Cc1ccc(C(=O)Nc2ccc(Cl)c(C(F)(F)F)c2)cc1Nc1nccc(-c2cccs2)n1 [SCT-1007, N-(4-chloro-3-(trifluoromethyl)phenyl)-4-methyl-3-((4-(thiophen-2-yl)pyrimidin-2-yl)amino)benzamide] | 1.1 | –
22 | < 4.70 | Cc1cc(-c2ccnc(Nc3cc(C(=O)Nc4ccc(Cl)c(C(F)(F)F)c4)ccc3C)n2)ccc1F [SCT-1009, N-(4-chloro-3-(trifluoromethyl)phenyl)-3-((4-(4-fluoro-3-methylphenyl)pyrimidin-2-yl)amino)-4-methylbenzamide] | 1.1 | –
23 | < 4.70 | Cc1ccc(C(=O)Nc2ccc(Cl)c(C(F)(F)F)c2)cc1Nc1nccc(-c2cc(Cl)cc(Cl)c2)n1 [SCT-1012, N-(4-chloro-3-(trifluoromethyl)phenyl)-3-((4-(3,5-dichlorophenyl)pyrimidin-2-yl)amino)-4-methylbenzamide] | 1.0 | –
24 | < 4.70 | N#Cc1ccc(-c2ccnc(Nc3cccc(NC(=O)Nc4ccc(Cl)c(C(F)(F)F)c4)c3)n2)cc1 [SCT-1013, 1-(4-chloro-3-(trifluoromethyl)phenyl)-3-(3-((4-(4-cyanophenyl)pyrimidin-2-yl)amino)phenyl)urea] | 1.0 | –
25 | < 4.70 | O=C(Nc1cccc(Nc2nccc(-c3ccc(OC(F)(F)F)cc3)n2)c1)Nc1ccc(Cl)c(C(F)(F)F)c1 [SCT-1020, 1-(4-chloro-3-(trifluoromethyl)phenyl)-3-(3-((4-(4-(trifluoromethoxy)phenyl)pyrimidin-2-yl)amino)phenyl)urea] | 1.3 | –
26 | < 4.70 | O=C(Nc1cccc(Nc2cc(-c3ccccc3)ncn2)c1)Nc1ccc(Cl)c(C(F)(F)F)c1 [SCT-1022] | 1.4 | –
27 | < 4.70 | CCc1cccc(NC(=O)Nc2cccc(Nc3nccc(-c4ccc[nH]4)n3)c2)c1 [SCT-1033] | – | –
28 | < 4.70 | Cc1ccc(F)c(NC(=O)Nc2cccc(Nc3nccc(-c4ccc[nH]4)n3)c2)c1 [SCT-1034] | – | –
29 | < 4.70 | COC(=O)c1cc(NC(=O)Nc2cccc(Nc3nccc(-c4ccc[nH]4)n3)c2)ccc1C [SCT-1039, Methyl 5-(3-(3-((4-(1H-pyrrol-2-yl)pyrimidin-2-yl)amino)phenyl)ureido)-2-methylbenzoate] | – | –
